# Laboratory results from patent US7459477B2, “Substituted N-phenyl-phenoxy nicotinic acid-(thio)amides and their use as herbicides” (Nihon Nohyaku, Co., Ltd., priority 2001, dated 2008).
# Legend:
# Assay type in all cases: in vivo
# [1] = tested on: Two-Spotted Spider Mite (Tetranychus Urticae); test: Acaricidal effect on two-spotted spider mite (Test Example 3); settings: 500 ppm; kidney bean leaf disc with female adults sprayed; two days after the treatment; 25° C.
# Protocol: Acaricidal Effect on Two-Spotted Spider Mite (Tetranychus Urticae)
# A leaf disc with a diameter of 2 cm was made of a kidney bean leaf, placed on wet filter paper, inoculated with female adult two-spotted spider mites, and then uniformly sprayed, on a turntable, with 50 ml of a liquid chemical prepared by diluting a preparation containing each compound listed in Tables 1 to 4 as an active ingredient to adjust the concentration to 500 ppm. After the spraying, the leaf disc was allowed to stand in a room thermostated at 25° C. Two days after the treatment with the preparation, the dead insects were counted and the acaricidal effect was judged according to the criterion shown in Test Example 1. The test was carried out with two replications of 10 insects.
# [2] = tested on: Diamond Back Moth (Plutella xylostella); test: Insecticidal effect on diamond back moth (Test Example 1); settings: 500 ppm; Chinese cabbage seedling with eggs immersed about 30 seconds; six days after the immersion; 25° C.
# From the text: Insecticidal Effect on Diamond Back Moth (Plutella xylostella)
# Adult diamond back moths were released and allowed to oviposit on a Chinese cabbage seedling. Two days after the release, the seedling having the eggs deposited thereon was immersed for about 30 seconds in a liquid chemical prepared by diluting a preparation containing each compound listed in Tables 1 to 4 as an active ingredient to adjust the concentration to 500 ppm. After air-dryness, it was allowed to stand in a room thermostatted at 25° C. Six days after the immersion, the hatched insects were counted. The mortality was calculated according to the following equation and the insecticidal effect was judged according to the criterion shown below. The test was carried out with triplicate groups of 10 insects.
# [3] = tested on: powdery mildew fungus (Erysiphe graminis hordei); test: Controlling effect on barley powdery mildew (Test Example 5); settings: 200 ppm; potted barley at 1 leaf stage sprayed one day after inoculation; one week after the inoculation; 25° C.
# Protocol: Controlling Effect on Barley Powdery Mildew Potted barley plants at the 1 leaf stage were inoculated with spores of powdery mildew fungus (Erysiphe graminis hordei) by sprinkling. After one day, they were sprayed with a liquid chemical prepared by diluting a preparation containing each compound listed in Table 1, Table 3 or Table 4 as an active ingredient to adjust the concentration to 200 ppm. Then, they were allowed to stand in a room thermostated at 25° C. One week after the inoculation, the lesion area of each leaf was measured and then compared with that on the untreated plot, whereby the controlling effect was judged according to the following criterion. Criterion for Judgment: • A: control efficacy 100 to 95% • B: control efficacy 94 to 80% • C: control efficacy 79 to 60% • D: control efficacy 59 to 0%
# [4] = tested on: Smaller Tea Tortrix (Adxophyes sp.); test: Insecticidal effect on smaller tea tortrix (Test Example 2); settings: 500 ppm; tea leaves immersed about 30 seconds, inoculated with larvae; eight days after the inoculation; 25° C., humidity 70%
# Protocol: Insecticidal Effect on Smaller Tea Tortrix (Adxophyes sp.)
# Tea leaves were immersed for about 30 seconds in a liquid chemical prepared by diluting a preparation containing each compound listed in Tables 1 to 4 as an active ingredient to adjust the concentration to 500 ppm. After air-dryness, the tea leaves were placed in a plastic Petri dish with a diameter of 9 cm and inoculated with larvae of smaller tea tortrix, after which the dish was allowed to stand in a room thermostatted at 25° C. and having a humidity of 70%. Eight days after the inoculation, the dead and alive were counted. The mortality was calculated according to the following equation and the insecticidal effect was judged according to the criterion shown in Test Example 1. The test was carried out with triplicate groups of 10 insects.
# [5] = tested on: Green Peach Aphid (Myzus Persicae); test: Insecticidal effect on green peach aphid (Test Example 4); settings: 500 ppm; stems and leaves of Chinese cabbage sprayed; six days after the spraying; greenhouse
# From the text: Insecticidal Effect on Green Peach Aphid (Myzus Persicae)
# A Chinese cabbage plant was planted in each of plastic pots with a diameter of 8 cm and a height of 8 cm, and green peach aphids were propagated on the plant. Then, the stems and leaves were sufficiently sprayed with a liquid chemical prepared by diluting a preparation containing each compound listed in Tables 1 to 4 as an active ingredient to adjust the concentration to 500 ppm. After air-drying, the pots were allowed to stand in a greenhouse. Six days after the spraying, green peach aphids parasitic on each Chinese cabbage plant were counted and the control efficacy was calculated, whereby the […] effect was judged according to the criterion shown below. Control efficacy (%)=100−[(T×Ca)/(Ta×C)]×100 • Ta: number of parasites before spraying in treated group, • T: number of parasites after spraying in treated group,
# Ca: number of parasites before spraying in untreated group, • […]: number of parasites after spraying in untreated group. Criterion for Judgment: • A: control efficacy 100% • B: control efficacy 99 to 90% • C: control efficacy 89 to 80% • D: control efficacy 79 to 50%
smiles,measurement,setting,value
CC(C)CC(C)c1cc(C(C(F)(F)F)C(F)(F)F)ccc1NC(=O)c1cnn(CCF)c1Cl (stereo not drawn) [1-52],acaricidal effect (mortality rating),[1],B or higher
same,insecticidal effect (mortality rating),[2],B or higher
same,"controlling effect (control efficacy rating, lesion area)",[3],B or higher
same,insecticidal effect (mortality rating),[4],B or higher
same,control efficacy rating,[5],B or higher
Cc1c(C(=O)Nc2ccc(C(C(F)(F)F)C(F)(F)F)cc2C(C)CC(C)C)cnn1C (stereo not drawn) [1-45],"controlling effect (control efficacy rating, lesion area)",[3],B or higher
CC(C)CC(C)c1cc(C(C(F)(F)F)C(F)(F)F)ccc1NC(=O)c1snnc1C(F)(F)F (stereo not drawn) [3-12],insecticidal effect (mortality rating),[2],B or higher
same,insecticidal effect (mortality rating),[4],B or higher
CC(C)CC(C)c1cc(C(C(F)(F)F)C(F)(F)F)ccc1NC(=O)c1sccc1Cl (stereo not drawn) [3-28],insecticidal effect (mortality rating),[4],B or higher
Cn1cc(C(=O)Nc2ccc(C(F)(C(F)(F)F)C(F)(F)F)c3c2CCCC3)c(C(F)(F)F)n1 [1-12],"controlling effect (control efficacy rating, lesion area)",[3],B or higher
Cc1c(C(=O)Nc2ccc(C(C(F)(F)F)C(F)(F)F)cc2C(C)CC(C)C)c(Cl)nn1C (stereo not drawn) [1-60],insecticidal effect (mortality rating),[4],B or higher
Cc1cc(C(=O)Nc2ccc(C(C(F)(F)F)C(F)(F)F)cc2C(C)CC(C)C)n(C)n1 (stereo not drawn) [4-3],acaricidal effect (mortality rating),[1],B or higher
same,"controlling effect (control efficacy rating, lesion area)",[3],B or higher
CC(C)CC(C)c1cc(C(C(F)(F)F)C(F)(F)F)ccc1NC(=O)c1cn(C)nc1C(F)(F)F (stereo not drawn) [1-30],"controlling effect (control efficacy rating, lesion area)",[3],B or higher
CCCc1nn(C)c(Cl)c1C(=O)Nc1ccc(C(C(F)(F)F)C(F)(F)F)cc1C(C)CC(C)C (stereo not drawn) [1-133],insecticidal effect (mortality rating),[2],B or higher
same,"controlling effect (control efficacy rating, lesion area)",[3],B or higher
CC(C)CC(C)c1cc(C(C(F)(F)F)C(F)(F)F)ccc1NC(=O)c1sccc1I (stereo not drawn) [3-30],"controlling effect (control efficacy rating, lesion area)",[3],B or higher
same,insecticidal effect (mortality rating),[4],B or higher
CC(C)c1cc(C(F)(C(F)(F)F)C(F)(F)F)ccc1NC(=O)c1cn(C)nc1C(F)(F)F [1-5],"controlling effect (control efficacy rating, lesion area)",[3],B or higher
CCn1ncc(C(=O)Nc2ccc(C(C(F)(F)F)C(F)(F)F)cc2C(C)CC(C)C)c1Br (stereo not drawn) [1-54],acaricidal effect (mortality rating),[1],B or higher
same,"controlling effect (control efficacy rating, lesion area)",[3],B or higher
COC(c1ccc(NC(=O)c2sccc2I)c(C(C)CC(C)C)c1)(C(F)(F)F)C(F)(F)F (stereo not drawn) [3-31],"controlling effect (control efficacy rating, lesion area)",[3],B or higher
same,insecticidal effect (mortality rating),[4],B or higher
"CC(C)CC(C)c1cc(C(C(F)(F)F)C(F)(F)F)ccc1NC(=O)c1c(C(F)(F)F)nn(C)c1Cl (stereo not drawn) [Compound No. 1-103, N-{2-(1,3-dimethylbutyl)-4-[2,2,2-trifluoro-1-(trifluoromethyl)ethyl]phenyl}-5-chloro-1-methyl-3-trifluoromethylpyrazole-4-carboxamide]",acaricidal effect (mortality rating),[1],B or higher
same,insecticidal effect (mortality rating),[2],B or higher
same,insecticidal effect (mortality rating),[4],B or higher
CC(C)CC(C)c1cc(C(C(F)(F)F)C(F)(F)F)ccc1NC(=O)c1cnn(C)c1[S+](C)[O-] (stereo not drawn) [1-47],"controlling effect (control efficacy rating, lesion area)",[3],B or higher
CCCC(C)c1cc(C(OC)(C(F)(F)F)C(F)(F)F)ccc1NC(=O)c1c(C)nn(C)c1Cl (stereo not drawn) [1-23],acaricidal effect (mortality rating),[1],B or higher
same,"controlling effect (control efficacy rating, lesion area)",[3],B or higher
CCn1nc(C)c(C(=O)Nc2ccc(C(O)(C(F)(F)F)C(F)(F)F)cc2C(C)CC(C)C)c1Br (stereo not drawn) [1-83],"controlling effect (control efficacy rating, lesion area)",[3],B or higher
"Cc1nn(C)c(Cl)c1C(=O)Nc1ccc(C(C(F)(F)F)C(F)(F)F)cc1C(C)CCC(C)C (stereo not drawn) [Compound No. 1-146, N-{2-(1,4-dimethylpentyl)-4-[2,2,2-trifluoro-1-(trifluoromethyl)ethyl]phenyl}-5-chloro-1,3-dimethylpyrazole-4-carboxamide]",acaricidal effect (mortality rating),[1],B or higher
same,insecticidal effect (mortality rating),[2],B or higher
same,control efficacy rating,[5],B or higher
Cc1nn(C)c(F)c1C(=O)Nc1ccc(C(C(F)(F)F)C(F)(F)F)cc1C(C)CC(C)C (stereo not drawn) [1-65],acaricidal effect (mortality rating),[1],B or higher
same,insecticidal effect (mortality rating),[2],B or higher
same,control efficacy rating,[5],B or higher
